Here are results for two compounds from patent US12648932B2, “Ergothioneine, S-methyl-ergothioneine, and uses thereof” (FUNDACIÓ INSTITUT D'INVESTIGACIÓ BIOMÈDICA DE BELLVITGE …, priority 2019, dated 2026).

One series has as its system cystinuria mouse model. Put plainly: 1-month L-Erg treatment in the drinking water (dose finding): water intake, urine pH, ORP, urine L-Erg and S-Met-L-Erg. The class given is in vivo. The settings on record: for increase of L-Erg concentration in urine: after vs before treatment. The procedure:
Three different treatments were applied to mice: 1-month, 3-month to lithiasic mice (subchronic) and 6-month (chronic exposure). In all cases L-Erg was administered in the drinking water.
For the 1-month treatment, L-Erg was provided to eight 3-month old male and female mice at 15 or 60 mg/L for 4 weeks in standard cages with free access to water and food to 8 mice (4 males and 4 females).
(§1) During the last week of any treatment period, mice were individually housed in metabolic cages for 4 days with the first day as an adaptation period. Mice weight, water and food intake, and excreted urine were monitored daily. 24 h urine samples were collected and kept at −80° C. until further analysis with 50 μL thymol 10% in isopropanol as preservative. pH was determined with a pHmeter (cat. no. 5209, Crison), and the redox potential with an ORP electrode (cat.no. 5265, Crison) at room temperature on a micropH 2000 (Crison).
(§2) L-Erg and S-Met-L-Erg analysis in urine were determined as in Example 1. For the determination of transulfuration pathway metabolites concentration, frozen kidneys were grinded using a pre-cooled mortar and pestle on dry ice. Then, 100 mg of powdered kidney were homogenized in 400 μL PBS supplemented with 10 mM NEM. To induce protein precipitation, PCA at 4% was added and samples were centrifuged at 4° C. for 15 min at 10,000 rpm in a microfuge. Supernatants were transferred to a new tube and stored at −80° C. until further analysis. Intracellular content of transulfuration pathway metabolites was determined by U PLC-MS/MS (Escobar J, et al. Development of a reliable method based on ultra-performance liquid chromatography coupled to tandem mass spectrometry to measure thiol-associated oxidative stress in whole blood samples. J. Pharm. Biomed. Anal. 2016; 123: 104-112). Protein pellets were resuspended in 400 μL 1M NaOH and the supernatant used to determine total protein concentration by BCA Protein Assay Kit (ThermoScientific).
First, there were determined the best working dose for treating the mice by investigating the effects of 1-month L-Erg treatment at two different concentrations in the drinking water, 15 and 60 mg/L, on water intake, and urine pH and ORP and L-Erg concentration.

Series [1] has as its system lithiasic mice (cystine stone growth). Put plainly: 3-month L-Erg treatment of lithiasic mice, cystine stone growth by X-ray imaging. Type of series: in vivo, mouse. The settings on record: 3 months. On the procedure:
For the evaluation of L-Erg effect on lithiasic mice, 15 mice (8 males and 7 females) were treated with 60 mg/L L-Erg on the drinking water and 13 mice (4 male and 9 females were left untreated as control. Mice were 10.9-26-9 weeks-old at the beginning of the treatment period with a mean age of 15.3±1.4 and 16.9±1.01 weeks of age for control and L-Erg treated, respectively. During the 3-month treatment water intake and mice weight was monitored weekly.
(§3) Isoflurane anesthetized mice were subjected to X-ray imaging for lithiasis detection and follow-up with an IVIS Lumina XR Series III (Caliper Lifescience-Vertex Techniques) following manufacturer's imaging parameters at the age indicated in the corresponding figure legends with a calibration curve of cystine stone of known weights. Stone quantification was done using Living Image Software, provided with the instrument, by manually delimiting stone area and the estimated weight was interpolated from the calibration curve.
(§4) For the growth rate analysis, a linear regression model was used when more than 2 data points where available. The slope of the regression line in the model was used as the growth rate.
as §1

Series [2] relates to cystinuric mice (cystine stone formation). As to the kind of experiment: 6-month (chronic) L-Erg treatment of cystinuric mice since weaning, cystine stone onset by X-ray imaging. Type of series: in vivo, mouse. The settings on record: for stone growth (rate) in the L-Erg treated group: preventive treatment. On the procedure: For the chronic exposure (6-month treatment), 4-6 mice per cage were treated since weaning for 6 months. To control L-Erg dose, water intake and mice weight were monitored and L-Erg concentration in drinking water was adjusted to get 16 mg/kg·day dose every 3 days for the first month and weekly afterwards. All mice were caged in metabolic cages individually the last week of the treatment to collect urine where water intake and mice weight were monitored daily.
as §3, §4, §1
On the last day, mice were anesthetized with isfluorane and blood removed through intracardiac puncture and kidneys were harvested, weighted and stored at −80° C. until further use. Cystine stones, if present, were removed, dried, weighted and stored at RT.

For series [3], the system named is transulfuration pathway metabolites in kidney. Put plainly: Intracellular content of transulfuration pathway metabolites in kidneys of chronically treated mice (UPLC-MS/MS). Type of series: in vivo, mouse. The conditions noted are these: chronically L-Erg treated vs untreated mice. The procedure: as §2, with “For the chronic exposure (6-month treatment), 4-6 mice per cage were treated since weaning for 6 months. To control L-Erg dose, water intake and mice weight were monitored and L-Erg concentration in drinking water was adjusted to get 16 mg/kg·day dose every 3 days for the first month and weekly afterwards. All mice were caged in metabolic cages individually the last week of the treatment to collect urine where water intake and mice weight were monitored daily. On the last day, mice were anesthetized with isfluorane and blood removed through intracardiac puncture and kidneys were harvested, weighted and stored at −80° C. until further use. Cystine stones, if present, were removed, dried, weighted and stored at RT. L-Erg and” for “L-Erg and”

A short description of series [4]: L-Erg-Cys in vitro binding assay. The settings on record: pH=7.2 and pH=11, RT, 17 h, LC/MS-MS. On the procedure:
The reactivity of L-Erg with itself and with Cys was assayed in vitro at two conditions pH=7.2 in 0.2M Na2HPO4 and pH=11 in boric acid buffer (ref. 33650-1L, Fluka) at RT for 17 h. The presence of L-Erg-L-Erg and L-Erg-Cys dimers, and cystine was determined by LC/MS-MS.

For series [5] the following is noted: equivalent of 5 mg/kg·day; cited from earlier work.
For series [6], the system named is lithiasic phenotype in cystinuric mice. As to the kind of experiment: ROC curve of urine S-Met-L-Erg concentration to differentiate the lithiasic phenotype. On the set-up: species or system mouse. The settings on record: stone former vs non-stone former Slc7a9-/- mice. The procedure: Mice from each genotype were individually housed in metabolic cages for 4 days with the first day as an adaptation period. Mice weight, water and food intake, and feces and urine excreted were monitored daily. 24 h urine samples were collected and kept at −80° C. until further analysis with 50 μL thymol 10% in isopropanol as preservative. Blood was obtained by intracardiac puncture with EDTA coated syringes and transferred into Microvette EDTA-tubes (Sarstedt) and centrifuged at 3000 rpm for 10 min and 4° C. in a minifuge after a 10 min incubation at room temperature. Plasma was then separated into a new tube and kept on ice. Plasma absorbance at 414 nm was then determined to quantify hemolysis with a NanoDrop spectrophotometer and only those with OD<0.2 were considered for the further analysis. Plasma samples were stored at −80° C. and centrifuged erythrocytes (RBCs) were also collected and stored at −80° C.
For L-Erg and S-met-L-Erg analysis in urine, thawed urine samples where centrifuged at 1000×g 5 min and 4° C. to remove any debris. […] The samples where then filtered through eXtremeFV PVDF 0.2 μm filter vials (Thomson Instrument Company), and L-Erg and S-met quantified by UPLC-MS/MS. […]
Mass spectrometry was carried out under positive ion, electrospray ionization mode, using multiple reaction monitoring (MRM) for quantification of specific target ions. […]

Setting [7] is: 60 mg/L L-Erg in drinking water.
[8] abbreviates: 60 mg/L, before vs after treatment.
The mark [9] stands for this setting: end of 6-month treatment, treated vs non-treated.

In the case of `C[N+](C)(C)[C@@H](Cc1c[nH]c(=S)[nH]1)C(=O)[O-]` (stereo in doubt) [L-Erg, [1-carboxy-2-(2-sulfanylidene-1,3-dihydroimidazol-4-yl)ethyl]-trimethylazanium], the “increase of L-Erg concentration in urine” value in the series with cystinuria mouse model (15 mg/L L-Erg in drinking water) is 3.4±0.4 fold. Further, the “urine pH change” value in the series with cystinuria mouse model (15 mg/L L-Erg in drinking water, p=0.052) is on record as “statistically non-significant increase”. Also, the “water intake normalized by surface, change at the end of the treatment” value with cystinuria mouse model (15 mg/L L-Erg in drinking water, p=0.11) is given as “statistically non-significant increase”. Further, in the series with cystinuria mouse model (setting [7]), the “urine pH change” value is recorded as “statistically significant increase” and the “increase of L-Erg concentration in urine” value is on record as 174.6±38.4 fold. Further, the “water intake normalized by surface, change at the end of the treatment” value with cystinuria mouse model (60 mg/L L-Erg in drinking water, p=0.08) is recorded as “statistically non-significant increase”. Besides, the “urine redox status or potential (ORP) change” value in the series on cystinuria mouse model (15 and 60 mg/L L-Erg in drinking water) is on record as “statistically non-significant decrease”. Further, in series [1] (60 mg/L in drinking water, lithiasic mice, treated vs untreated, p=0.61), the “effect on cystine stone growth” value was “No effect”. Further, the “effect on growth of multiple stones” value in series [1] (60 mg/L in drinking water, p=0.41) is reported as “No statistically significant effect”. Further, the “effect on growth of single stones” value in series [1] (60 mg/L in drinking water, p=0.78) is given as “No statistically significant effect”. Further, in series [1] (setting [8]), the “effect on surface corrected water intake” value was “no differences”, the “effect on urine pH” value is “no differences” and the “effect on urine redox status” value was “no differences”. The lithiasis onset result in series [2] (16 mg/kg·day, 6 months, independently of sex) is “delayed lithiasis onset”. In addition, the “stone growth (rate) in the L-Erg treated group” value in series [2] (16 mg/kg·day, 6 months, vs untreated) was “almost statistically significant reduction”. Also, the “stone growth (rate) in the L-Erg treated group” value in series [2] (16 mg/kg·day, 6 months, vs untreated, listed as ergothioneine) is given as “lower”. In series [2] (6-month chronic treatment), the “effect on mouse weight” value is reported as “no effects” and the “effect on water intake” value was “no effects”. In addition, in series [2] (setting [9]), the “effect on urine pH” value was “no differences” and the “effect on urine redox potential” value is on record as “statistically significant more reduced urine”. The “side effects in cystinuric mice” value in series [2] (mouse, in vivo) is given as “does not generate any side effect”. Besides, the “reduction in the number of lithiasic (stone-forming) mice” value in series [2] (target dose 16 mg/kg·day in drinking water since weaning, 6 months, vs untreated) is recorded as 50%. Also, in series [2] (treated mice that still formed stones), the “delay of stone formation in relation to non-treated mice” value is 1 month. Further, in series [3], the “Cys intracellular concentration in kidney, increase” value is given as 1.6 ×; the “Cys/CssC ratio in kidney, increase” value was determined as 6.1 times; the “GSH intracellular concentration in kidney, increase” value is given as 1.4 ×; the “GSH/GSSG ratio in kidney, increase” value is on record as 2.1 times. In series [3], the “Met intracellular concentration in kidney, increase” value was 1.7 ×; the “S-adenosylhomocysteine (SAH) intracellular concentration in kidney, decrease” value worked out at 1.2 ×; the “SAM/SAH ratio in kidney, increase” value came to 1.8 times; the “cystine intracellular concentration in kidney, decrease” value was determined as 11.1 ×. In addition, the “gamma-Glutamylcysteine intracellular concentration in kidney, increase” value in series [3] was 1.7 ×. For the same compound, the “formation of L-Erg-Cys and L-Erg-L-Erg dimers” value in series [4] is listed as “Neither L-Erg-Cys, nor L-Erg-L-Erg dimers were detected”. The “time L-Erg blood and plasma concentrations remain significatively higher after the administration end” value in series [5] is 6 weeks.

Consider `CSc1ncc(C[C@@H](C(=O)[O-])[N+](C)(C)C)[nH]1` [S-Met-L-Erg, (2-{S})-3-(2-methylsulfanyl-1-{H}-imidazol-5-yl)-2-(trimethylazaniumyl)propanoate], for which the “area under the ROC curve, urine concentration as lithiasic biomarker” value in series [6] is “over 0.65”.
